Experimental data reported in patent US20090069319A1, “IMIDAZOPYRIDINE ANALOGS AND THEIR USE AS AGONISTS OF THE WNT-BETA-CATENIN CELLULAR MESSAGING SYSTEM” (Wyeth, priority 2007, published 2009).

How the values were obtained:
[1] = system: canonical Wnt-β-catenin cellular messaging system (16xTCF-TK-FireFly-Luci reporter, Wnt3a and Dkk1 co-transfected U2OS cells); experiment: Functional Dkk1-LRP5-TCF-Luciferase Assay in U2OS Cells (table columns: A=MAX FOLD Induction/DMSO CONTROL; B=fold induction @ 2.0 uM; C=fold induction @ 20.0 uM); assay type: cell-based, Human; conditions: maximum fold induction over DMSO control
Procedure, shortened: (§1)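 U2OS cells co-transfected with 16×TCF-TK-firefly luciferase, TK-Renilla control, Wnt3a and Dkk1, then frozen; thawed cells (~5,000/well, ~5% FBS, phenol red-free RPMI) incubated ~20 h at 37° C. with compound (0.25% DMSO). Firefly luminescence (Bright-Glo) normalized to DMSO mean as fold induction.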

[2] = as above; assay type: cell-based, Human; conditions: Homo sapiens; for fold induction at 2 µM / fold induction at 20 µM: U2OS; for fold induction at 2 µM: 2.0 uM compound; for fold induction at 20 µM: 20.0 uM compound; for EC50: U2OS cells, TCF-luciferase reporter
Procedure, shortened: as §1

Compound	A = MAX FOLD Induction/DMSO CONTROL [1]	fold induction at 2 µM [2]	fold induction at 20 µM [2]	EC50 [2] [nM]
CS(=O)(=O)N1CCC(n2cnc3c(-c4ccc5ccccc5c4)ccnc32)CC1 [3-[1-(methylsulfonyl)piperidin-4-yl]-7-(2-naphthyl)-3H-imidazo[4,5-b]pyridine]	1.230	1.66	2.52	–
c1ccc2cc(-c3ccnc4c3ncn4C3CCNCC3)ccc2c1 [7-(2-naphthyl)-3-piperidin-4-yl-3H-imidazo[4,5-b]pyridine]	3.881	5.4	0.063	725
c1c[nH]c(-c2nc3cc(-c4ccc5ccccc5c4)cnc3n2C2CCNCC2)c1 [6-(2-naphthyl)-3-piperidin-4-yl-2-(1H-pyrrol-2-yl)-3H-imidazo[4,5-b]pyridine]	1.580	1.01	1.99	–
COc1ccc(-c2nc3c(-c4ccc5ccccc5c4)ccnc3n2C2CCNCC2)cc1 [2-(4-methoxyphenyl)-7-(2-naphthyl)-3-piperidin-4-yl-3H-imidazo[4,5-b]pyridine]	1.320	1.98	–	–
c1cncc(-c2nc3cc(-c4ccc5ccccc5c4)cnc3n2C2CCNCC2)c1 [6-(2-naphthyl)-3-piperidin-4-yl-2-pyridin-3-yl-3H-imidazo[4,5-b]pyridine]	1.100	1.75	0.005	–
c1ccc2cc(-c3ccnc4c3nc(-c3ccncc3)n4C3CCNCC3)ccc2c1 [7-(2-naphthyl)-3-piperidin-4-yl-2-pyridin-4-yl-3H-imidazo[4,5-b]pyridine]	1.650	1.89	2.27	–
c1ccc2cc(-c3cnc4c(c3)nc(-c3ccc5c(c3)OCO5)n4C3CCNCC3)ccc2c1 [2-(1,3-benzodioxol-5-yl)-6-(2-naphthyl)-3-piperidin-4-yl-3H-imidazo[4,5-b]pyridine]	1.860	–	–	737
c1ccc2cc(-c3ccnc4c3ncn4CC3CCNCC3)ccc2c1 [7-(2-naphthyl)-3-(piperidin-4-ylmethyl)-3H-imidazo[4,5-b]pyridine]	1.930	2.72	–	–
c1ccc2cc(-c3ccnc4c3ncn4[C@@H]3CCCNC3)ccc2c1 [7-(2-naphthyl)-3-[(3R)-piperidin-3-yl]-3H-imidazo[4,5-b]pyridine]	3.820	3.48	1.4	963
Oc1cccc(-c2nc3cc(-c4ccc5ccccc5c4)cnc3n2C2CCNCC2)c1 [3-[6-(2-naphthyl)-3-piperidin-4-yl-3H-imidazo[4,5-b]pyridin-2-yl]phenol]	1.860	–	–	1220
c1ccc2cc(-c3ccnc4c3ncn4[C@@H]3CCNC3)ccc2c1 [7-(2-naphthyl)-3-[(3R)-pyrrolidin-3-yl]-3H-imidazo[4,5-b]pyridine]	4.260	2.06	1.65	3150
c1ccc2cc(-c3ccnc4c3ncn4CCCn3ccnc3)ccc2c1 [3-[3-(1H-imidazol-1-yl)propyl]-7-(2-naphthyl)-3H-imidazo[4,5-b]pyridine]	2.870	1.76	3.31	10200
COc1cc(-c2nc3cc(-c4ccc5ccccc5c4)cnc3n2C2CCNCC2)ccc1O [2-methoxy-4-[6-(2-naphthyl)-3-piperidin-4-yl-3H-imidazo[4,5-b]pyridin-2-yl]phenol]	2.110	–	–	486
COc1ncccc1-c1nc2cc(-c3ccc4ccccc4c3)cnc2n1C1CCNCC1 [2-(2-methoxypyridin-3-yl)-6-(2-naphthyl)-3-piperidin-4-yl-3H-imidazo[4,5-b]pyridine]	2.030	2.06	0.02	–
